Source: patent publication US9725448B2, “Neprilysin inhibitors” (THERAVANCE BIOPHARMA R&D IP, LLC, priority 2011, dated 2017)

Molecular target: T1, human NEP (Homo sapiens, UniProt P08473)
T1 construct: purchased R&D Systems, Minneapolis, Minn; 1182-ZN
Assay: In vitro enzyme inhibition assay at human NEP (fluorogenic peptide substrate)
Type: biochemical
Details: pKi values at human NEP (recombinant), given as ranges
Procedure: The inhibitory activities of compounds at human and rat neprilysin (EC 3.4.24.11; NEP) and human angiotensin converting enzyme (ACE) were determined using in vitro assays as described below.
Recombinant human NEP and recombinant human ACE were obtained commercially (R&D Systems, Minneapolis, Minn., catalog numbers 1182-ZN and 929-ZN, respectively). The fluorogenic peptide substrate Mca-D-Arg-Arg-Leu-Dap-(Dnp)-OH (Medeiros et al. (1997) Braz. J. Med. Biol. Res. 30:1157-62; Anaspec, San Jose, Calif.) and Abz-Phe-Arg-Lys(Dnp)-Pro-OH (Araujo et al. (2000) Biochemistry 39:8519-8525; Bachem, Torrance, Calif.) were used in the NEP and ACE assays respectively.
The assays were performed in 384-well white opaque plates at 37° C. using the fluorogenic peptide substrates at a concentration of 10 μM in Assay Buffer (NEP: 50 mM HEPES, pH 7.5, 100 mM NaCl, 0.01% polyethylene glycol sorbitan monolaurate (Tween-20), […]; ACE: 50 mM HEPES, pH 7.5, 100 mM NaCl, 0.01% Tween-20, 1 μM ZnSO4).
Test compounds were assayed over the range of concentrations from 10 μM to 20 pM. Test compounds were added to the enzymes and incubated for 30 minute at 37° C. prior to initiating the reaction by the addition of substrate. Reactions were terminated after 20 minutes of incubation at 37° C. by the addition of glacial acetic acid to a final concentration of 3.6% (v/v).
Plates were read on a fluorometer with excitation and emission wavelengths set to 320 nm and 405 nm, respectively. Inhibition constants were obtained by nonlinear regression of the data using the equation (GraphPad Software, Inc., San Diego, Calif.): ν=ν0/[1+(I/K′)] where ν is the reaction rate, ν0 is the uninhibited reaction rate, I is the inhibitor concentration and K′ is the apparent inhibition constant.
Compounds of the invention were tested in this assay and found to have pKi values at human NEP as follows.

T1 sequence (P08473 52-750 limits assumed): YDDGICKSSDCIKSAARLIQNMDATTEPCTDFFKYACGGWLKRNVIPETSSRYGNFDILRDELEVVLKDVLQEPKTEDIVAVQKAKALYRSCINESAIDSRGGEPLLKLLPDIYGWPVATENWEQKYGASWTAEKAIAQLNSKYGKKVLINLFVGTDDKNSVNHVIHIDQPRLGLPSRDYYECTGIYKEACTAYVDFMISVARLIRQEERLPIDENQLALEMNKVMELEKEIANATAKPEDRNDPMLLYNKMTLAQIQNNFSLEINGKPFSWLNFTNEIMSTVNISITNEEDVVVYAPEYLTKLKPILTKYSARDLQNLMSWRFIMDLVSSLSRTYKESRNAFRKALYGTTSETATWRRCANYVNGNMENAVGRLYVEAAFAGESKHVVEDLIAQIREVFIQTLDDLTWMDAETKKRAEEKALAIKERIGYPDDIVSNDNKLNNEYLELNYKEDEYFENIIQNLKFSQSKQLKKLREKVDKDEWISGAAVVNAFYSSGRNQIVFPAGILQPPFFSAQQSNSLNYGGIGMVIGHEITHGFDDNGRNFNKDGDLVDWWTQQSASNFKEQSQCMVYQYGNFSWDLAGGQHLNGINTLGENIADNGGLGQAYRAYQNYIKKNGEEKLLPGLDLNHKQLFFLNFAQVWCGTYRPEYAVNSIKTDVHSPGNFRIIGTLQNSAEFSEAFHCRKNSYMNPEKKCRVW

| Ki [nM] | Compound |
| --- | --- |
| 1.26 to 10 | O=C(N[C@H](Cc1ccc(-c2ccccc2)cc1)CC1(C(=O)O)CC1)c1nc(O)n[nH]1 [Example 11-3, 1-{(R)-3-Biphenyl-4-yl-2-[(5-hydroxy-2H-[1,2,4]triazole-3-carbonyl)-amino]-propyl}-cyclopropanecarboxylic acid] |
| 12.6 to 100 | CC(C)(C[C@@H](Cc1ccc(-c2ccccc2)cc1)NC(=O)c1cc(C(=O)NCCc2c[nH]cn2)n[nH]1)C(=O)O [Example 9-17, (R)-5-Biphenyl-4-yl-4-({5-[2-(1H-imidazol-4-yl)-ethylcarbamoyl]-2H-pyrazole-3-carbonyl}-amino)-2,2-dimethyl-pentanoic acid] |
| 12.6 to 100 | CC(C)(C[C@@H](Cc1ccc(-c2ccccc2)cc1)NC(=O)c1cc(C(=O)N2CCC(O)CC2)n[nH]1)C(=O)O [Example 9-10, (R)-5-Biphenyl-4-yl-4-{[5-(4-hydroxy-piperidine-1-carbonyl)-2H-pyrazole-3-carbonyl]-amino}-2,2-dimethyl-pentanoic acid] |

Second part, the compound before the results:

| Compound | Ki [nM] |
| --- | --- |
| CC(O)(CN(Cc1ccc(-c2ccccc2)cc1)NC(=O)c1cc(C(=O)O)n[nH]1)C(=O)O (stereo not drawn) [Example 4-6, 5-[N′-Biphenyl-4-ylmethyl-N′-(2-carboxy-2-hydroxy-propyl)-hydrazinocarbonyl]-1H-pyrazole-3-carboxylic acid] | 1.26 to 10 |
| CN(C)C(=O)c1cc(C(=O)NN(Cc2ccc(-c3ccccc3)cc2)CC(C)(O)C(=O)O)[nH]n1 (stereo not drawn) [Example 4-7, 3-[N-Biphenyl-4-ylmethyl-N′-(5-dimethylcarbamoyl-2H-pyrazole-3-carbonyl)-hydrazino]-2-hydroxy-2-methyl-propionic acid] | 12.6 to 100 |
| C[C@](O)(C[C@@H](Cc1ccc(-c2ccccc2)cc1)NC(=O)c1cnn[nH]1)C(=O)O [Example 2-1, (2S,4R)-5-Biphenyl-4-yl-2-hydroxy-2-methyl-4-[(3H-[1,2,3]triazole-4-carbonyl)-amino]-pentanoic acid] | 12.6 to 100 |
| C[C@@](O)(CN(Cc1ccc(-c2cc(Cl)ccc2F)cc1)NC(=O)c1c[nH]c(=O)o1)C(=O)O [Example 7-22, (R)-3-[N-(5′-Chloro-2′-fluorobiphenyl-4-ylmethyl)-N′-(2-oxo-2,3-dihydro-oxazole-5-carbonyl)-hydrazino]-2-hydroxy-2-methyl-propionic acid] | 1.26 to 10 |
| C[C@@](O)(CN(Cc1ccc(-c2cccc(Cl)c2)cc1)NC(=O)c1c[nH]c(=O)o1)C(=O)O [Example 7-21, (R)-3-[N-(3′-Chlorobiphenyl-4-ylmethyl)-N′-(2-oxo-2,3-dihydro-oxazole-5-carbonyl)-hydrazino]-2-hydroxy-2-methyl-propionic acid] | 1.26 to 10 |
| CC(O)(CN(Cc1ccc(-c2ccccc2)cc1)NC(=O)c1cc(O)n[nH]1)C(=O)O (stereo not drawn) [Example 4-5, 3-[N-Biphenyl-4-ylmethyl-N′-(5-hydroxy-2H-pyrazole-3-carbonyl)-hydrazino]-2-hydroxy-2-methyl-propionic acid] | 12.6 to 100 |
| C[C@@](O)(CN(Cc1ccc(-c2cccc(F)c2)cc1)NC(=O)c1cc(O)no1)C(=O)O [Example 7-20, (R)-3-[N-(3′-Fluorobiphenyl-4-ylmethyl)-N′-(3-hydroxy-isoxazole-5-carbonyl)-hydrazino]-2-hydroxy-2-methyl-propionic acid] | 1.26 to 10 |
| CC(O)(CN(Cc1ccc(-c2ccccc2)cc1)NC(=O)c1cnc(O)nc1)C(=O)O (stereo not drawn) [Example 4-4, 3-[N-Biphenyl-4-ylmethyl-N′-(2-hydroxy-pyrimidine-5-carbonyl)-hydrazino]-2-hydroxy-2-methyl-propionic acid] | 12.6 to 100 |
| CC(O)(C[C@@H](Cc1ccc(-c2ccccc2)cc1)NC(=O)c1nc[nH]n1)C(=O)O (stereo partly drawn) [Example 2-2, (R)-5-Biphenyl-4-yl-2-hydroxy-2-methyl-4-[(2H-[1,2,4]triazole-3-carbonyl)-amino]-pentanoic acid] | 12.6 to 100 |
